From patent US5591711A, “L-lysyl-glycyl-L-histidine and therapeutic agent for wound healing containing the same” (Hoechst Japan Limited, priority 1994, dated 1997)
Peptide text beside a SMILES is read from it.

System: Balb/3T3 cells
Experiment: Fibroblast proliferation promoting activity (3H-thymidine incorporation)
Format: cell-based
Details: Balb/3T3 fibroblasts; for Incorporated 3H-thymidine: 15 h incubation then 6 h 3H-thymidine, mean ± SD, 4 cases per group
Experimental: Fibroblast cell strains, Balb/3T3 cells (purchased from ATCC) were inoculated into a 96-well culture plate at-5×10^3 cells/well, 100 μl of 10% calf serum-containing Dulbecco Modified Eagle Medium (hereinafter referred to as DME) was added and incubated at. 37 uC for 24 hours in an incubator. Then, the culture medium was removed and the cells were washed. One hundred μl of lowered serum medium (0.2% calf serum-containing DME) Was added to the wells and incubation was continued for another 3 days. L-lysyl-glycyl-L-histidine obtained in Example 1 was added thereto at 10 μl/well and incubation was performed for 15 hours. The culture medium contains a trace amount of Cu2+, and a part of L-lysyl-glycyl-L-histidine may form copper complexes. The 3H-thymidine was added to be 74 KBq/ml and incubation was performed for 6 hours. After completion of the incubation, the medium was removed, the cells were collected and the amount of 3H-thymidine incorporated in the cells was determined.

SMILES: NCCCC[C@H](N)C(=O)NCC(=O)N[C@@H](Cc1c[nH]cn1)C(=O)O [L-lysyl-glycyl-L-histidine] (H-Lys-Gly-His-OH)
- cell proliferation promoting activity (10^-6 to 10^-3 M, conclusion from Table 1): dose-dependent cell proliferation promoting activity
- Incorporated 3H-thymidine (Dose 10^-3 M): 7719.5 ± 1246.8 cpm
- Incorporated 3H-thymidine (Dose 10^-4 M): 4889.8 ± 495.1 cpm
- Incorporated 3H-thymidine (Dose 10^-5 M): 1371.8 ± 249.1 cpm
- Incorporated 3H-thymidine (Dose 10^-6 M): 1406.5 ± 470.5 cpm
